According to the supplement of paper PMC10307832:

Columns and labels:
Test in all cases: relative viability (nuclei count vs DMSO), 5 days (fraction); higher = more cells survive
Carboplatin + Dasatinib = compound: C1CC(C1)(C(=O)O)C(=O)O.[NH2-].[NH2-].[Pt+2] [Carboplatin] + Cc1nc(Nc2ncc(C(=O)Nc3c(C)cccc3Cl)s2)cc(N2CCN(CCO)CC2)n1 [Dasatinib] (partner 0.075 µM)
Summary of the method: (§1)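 Medians of duplicate plates are given as relative viability. That measure is the nuclei count in treated wells divided by the count in vehicle wells. Counts were taken on 4× images of lung cancer cell lines in 1536-well plates, 5 days after pin-tool dosing the day after seeding with one drug alone or a fixed anchor-drug dose plus five library-drug doses (not always all listed) in √10 steps.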

GSK126 + Pictilisib = compound: CC[C@H](C)N1C=C(C2=C(C=C(C=C21)C3=CN=C(C=C3)N4CCNCC4)C(=O)NCC5=C(C=C(NC5=O)C)C)C [GSK126] + CS(=O)(=O)N1CCN(Cc2cc3nc(-c4cccc5[nH]ncc45)nc(N4CCOCC4)c3s2)CC1 [Pictilisib] (partner 1 µM)
Summary of the method: as §1

MLN4924 + Lapatinib = compound: NS(=O)(=O)OC[C@@H]1C[C@@H](n2ccc3c(N[C@H]4CCc5ccccc54)ncnc32)C[C@@H]1O [MLN4924] + CS(=O)(=O)CCNCc1ccc(-c2ccc3ncnc(Nc4ccc(OCc5cccc(F)c5)c(Cl)c4)c3c2)o1 [Lapatinib] (partner 2 µM)
Summary of the method: as §1

MLN4924 + Luminespib = compound: NS(=O)(=O)OC[C@@H]1C[C@@H](n2ccc3c(N[C@H]4CCc5ccccc54)ncnc32)C[C@@H]1O [MLN4924] + CCNC(=O)c1noc(-c2cc(C(C)C)c(O)cc2O)c1-c1ccc(CN2CCOCC2)cc1 [Luminespib] (partner 0.01 µM)
Summary of the method: as §1

Cell Line | relative viability (Carboplatin + Dasatinib; first compound 0.08 µM) | relative viability (Carboplatin + Dasatinib; first compound 0.253 µM) | relative viability (Carboplatin + Dasatinib; first compound 0.8 µM) | relative viability (Carboplatin + Dasatinib; first compound 2.53 µM) | relative viability (Carboplatin + Dasatinib; first compound 8 µM) | relative viability (GSK126 + Pictilisib; first compound 0.08 µM) | relative viability (GSK126 + Pictilisib; first compound 0.253 µM) | relative viability (GSK126 + Pictilisib; first compound 0.8 µM) | relative viability (GSK126 + Pictilisib; first compound 2.53 µM) | relative viability (GSK126 + Pictilisib; first compound 8 µM) | relative viability (MLN4924 + Lapatinib; first compound 0.04 µM) | relative viability (MLN4924 + Lapatinib; first compound 0.1265 µM) | relative viability (MLN4924 + Lapatinib; first compound 0.4 µM) | relative viability (MLN4924 + Lapatinib; first compound 1.265 µM) | relative viability (MLN4924 + Lapatinib; first compound 4 µM) | relative viability (MLN4924 + Luminespib; first compound 0.04 µM) | relative viability (MLN4924 + Luminespib; first compound 0.1265 µM) | relative viability (MLN4924 + Luminespib; first compound 0.4 µM) | relative viability (MLN4924 + Luminespib; first compound 1.265 µM) | relative viability (MLN4924 + Luminespib; first compound 4 µM)
SK-MES-1 | 0.574 | 0.354 | 0.344 | 0.379 | 0.363 | 0.386 | 0.322 | 0.329 | 0.357 | 0.392 | 0.534 | 0.722 | 0.486 | 0.281 | 0.212 | 0.866 | 0.694 | 0.551 | 0.173 | 0.195
PC-14 | 0.288 | 0.292 | 0.261 | 0.131 | 0.068 | 0.684 | 0.667 | 0.59 | 0.693 | 0.656 | 0.382 | 0.655 | 0.395 | 0.157 | 0.136 | 0.151 | 0.164 | 0.114 | 0.116 | 0.152
NCI-H1651 | 0.436 | 0.397 | 0.344 | 0.435 | 0.216 | 0.55 | 0.548 | 0.601 | 0.608 | 0.584 | 0.911 | 0.776 | 0.281 | 0.138 | 0.116 | 0.725 | 0.745 | 0.607 | 0.315 | 0.224
HOP-62 | 0.711 | 0.711 | 0.645 | 0.728 | 0.575 | 0.894 | 0.758 | 0.64 | 0.86 | 0.785 | 0.843 | 0.798 | 0.205 | 0.114 | 0.0815 | 0.811 | 0.579 | 0.264 | 0.126 | 0.12
HCC-44 | – | – | – | – | – | 0.643 | 0.534 | 0.894 | 0.61 | 0.591 | 0.657 | 0.249 | 0.159 | 0.142 | 0.145 | 0.964 | 0.564 | 0.441 | 0.227 | 0.294
HCC-15 | 0.69 | 0.645 | 0.621 | 0.591 | 0.407 | 0.767 | 0.709 | 0.698 | 0.673 | 0.676 | 0.514 | 0.374 | 0.115 | 0.0895 | 0.0956 | 0.168 | 0.171 | 0.161 | 0.125 | 0.0876
NCI-H460 | 0.551 | 0.429 | 0.464 | 0.427 | 0.183 | 0.371 | 0.391 | 0.335 | 0.361 | 0.338 | 0.657 | 0.0947 | 0.0407 | 0.016 | 0.0144 | 0.0434 | 0.0335 | 0.0273 | 0.0208 | 0.0178
NCI-H1299 | – | – | – | – | – | 0.877 | 0.693 | 0.74 | 1.02 | 0.576 | 0.954 | 0.838 | 0.329 | 0.282 | 0.253 | – | – | – | – | –
SK-LU-1 | 0.198 | 0.205 | 0.166 | 0.179 | 0.165 | 0.657 | 0.699 | 0.587 | 0.667 | 0.694 | 0.703 | 0.491 | 0.299 | 0.19 | 0.181 | 0.18 | 0.228 | 0.215 | 0.186 | 0.147
